Values quoted from earlier work as cited in US7740874B2, “Method of making a lanolin free absorption base” (Quintessa Corporation, priority 2002, dated 2010).

Settings: hydrophilic-lipophilic balance

In the case of methyl glucose dioleate [emulsifier], the HLB is given as 5.
